Key:
Type in all cases: cell-based
Tollip = assay: cell fractionation and western blotting of the intracellular localization of Tollip; conditions: HEK293 cells transfected with Tollip-Myc-pcDNA3, 100 ng/mL TNF-α up to 48 h
Protocol: Firstly, the intracellular localization of alsin and Tollip was examined by cell fractionation and with western blotting. To be more specific, HEK293 cells were transfected with ALS2CR6-FLAG-pIRESpuro2 or Tollip-Myc-pcDNA3 and 24 h later, the cells were lysed and fractionated by a standard method. After that, western blotting (WB) was carried out. In the WB, lamin, which is localized in the cell nucleus only, and tubulin, which is localized in the cytoplasm only, were used as controls; mouse anti-lamin B (101-B7) NA12 (CALBIOCHEM) or mouse anti-tubulin (Ab-2) (clone DM1A) (LABVISION/NEOMARKERS) were used as primary antibodies, and goat anti-mouse SC-2005 (Santa Cruz) was used as the secondary antibody.
Next, with HEK293 cells transfected with Tollip-Myc-pcDNA3, we examined how the intracellular localization of Tollip changed by TNF-α treatment. Treatment with 100 ng/mL of TNF-α was given up to 48 h and changes in localization of Tollip were checked at different time points.

[1] = tested on: NFκB activity in HEK293 cells; assay: luciferase assay of induction of NFκB activity by TNF-α
Protocol: Firstly, for establishing the experiment system, we screened various treatment times and doses of TNF-α to determine the optimum conditions for induction of NFκB activity by TNF-α. The luciferase assay was used for the screening. To be more specific, firstly, the NFκB gene was introduced upstream of LUC into pELAM1-Luc, which is a luciferase (LUC) reporter vector, and a vector for expressing NFκB/LUC fusion protein was prepared. Next, HEK293 cells were transfected with this expression vector. 24 h after the transfection, the cells were treated with 10 ng/mL of TNF-α for 1, 2, 4, 8, or 24 h. After that, the luciferase assay was carried out by a standard method, and the level of transcription of the NFκB, which was the target gene, was examined. FIG. 9 (A) confirms that highest NFκB activity was induced 1 h after the treatment with TNF-α.
The level of transcription of NFκB was measured using different concentrations of TNF-α: 10, 100, and 1000 ng/mL, keeping the treatment time constant at 1 h. FIG. 9 (B) confirms that the highest NFκB activity was induced with 100 ng/mL.

[2] = tested on: NFκB protein in HEK293 cells; assay: western blotting of NFκB protein in cell nucleus and cytoplasm; conditions: 100 ng/mL TNF-α for 1, 2, 4, 8 or 24 h
Protocol: Furthermore, the expression level of the NFκB protein in the cell nucleus and the cytoplasm of HEK293 cells treated with 100 ng/mL of TNF-α for 1, 2, 4, 8, or 24 h was examined using western blotting (WB). For this WB, rabbit anti-NFκB p65(C-20) SC-372 (Santa Cruz) was used as the primary antibody and goat anti-rabbit SC-2004 (Santa Cruz) as the secondary antibody.

[3] = tested on: Tollip and IRAK-1 complex; assay: immunoprecipitation of the interaction between Tollip and IRAK-1; conditions: HEK293 cells transfected with Tollip-Myc-pcDNA3, 100 ng/mL TNF-α for 1 h
Protocol: There has been a report that Tollip binds to IRAK-1 in IL-1R/TLR signaling. We examined whether this happened in TNF-α signaling also. The experiment was carried out by the immunoprecipitation method, which can verify binding of proteins. HEK293 cells were transfected with Tollip-Myc-pcDNA3. Then, after 24 h, some of the cells were treated for 1 h with 100 ng/mL of TNF-α while others were not treated. After that, the cells were lysed and immunoprecipitation […] was carried out. For the immunoprecipitation, Chrom PumPure mouse IgG (Jackson Immunoresearch) was used as the control, mouse anti-IRAK-1(F-4)SC-5288 (Santa Cruz) and mouse anti-Myc(9B11)#2276 (Santa Cruz) were used as primary antibodies, and goat anti-mouse SC-2005 (Santa Cruz) was used as the secondary antibody.

TNF-α
expression of Tollip (Tollip): decreased the expression of Tollip | intracellular localization of Tollip (Tollip): made Tollip to migrate to the cell nucleus | treatment time at which highest NFκB activity was induced ([1]; HEK293 cells, 10 ng/mL TNF-α for 1, 2, 4, 8 or 24 h): 1 h | concentration at which highest NFκB activity was induced ([1]; HEK293 cells, 10, 100 and 1000 ng/mL, treatment time 1 h): 100 ng/mL | time of highest level of NFκB protein in the cell nucleus [2]: 1 h | binding of Tollip and IRAK-1 [3]: suppressed

Source: patent US20100055691A1, “SCREENING METHOD FOR THERAPEUTIC AGENT FOR AMYOTROPHIC LATERAL SCLEROSIS” (HISAMITSU PHARMACEUTICAL CO.,IN., priority 2006, published 2010)
